Target: T1, CPV turret protein (TP) (Bombyx mori cypovirus 1, UniProt Q914N6)
T1 construct: native full-length protein in intact virions purified from polyhedra; GTase, bridge, MT-1 and MT-2 domains; pentameric turret
Test: cryoEM structure of virion complex
Assay type: binding
Conditions: 10 mM MgCl2, pH 8.0, 31 °C

SMILES | cryoEM structure of virion complex (2 mM GTP, GTase site (all four structures), also putative ATPase site with SAM without ATP (3JB2)) | cryoEM structure of virion complex (1 mM SAM, MT-2 site (SAM alone, 3JB1), MT-1 and MT-2 sites with ATP and/or GTP present (3JAY, 3JB2, 3JB3))
Nc1nc2c(ncn2[C@@H]2O[C@H](COP(=O)(O)OP(=O)(O)OP(=O)(O)O)[C@@H](O)[C@H]2O)c(=O)[nH]1 [GTP] | In G-CPV, one GTP binds to the GTase site of GTase domain. | 
C[S+](CC[C@H](N)C(=O)O)C[C@H]1O[C@@H](n2cnc3c(N)ncnc32)[C@H](O)[C@@H]1O (some centres unmarked) [SAM] |  | In S-CPV, one SAM binds to the MT-2 domain of each TP.

From PMC4522710, “A putative ATPase mediates RNA transcription and capping in a dsRNA virus” (eLife, 2015)
